Test results reported in ChEMBL document CHEMBL5385863, “Targeting the phosphoserine phosphatase MtSerB2 for tuberculosis drug discovery, an hybrid knowledge based /fragment based approach” (Eur J Med Chem, 2023).
Calls of active or inactive are those of the source. The calls are words filed in the database; no cut-off is given here.

Experiments:
[1] = biological target: Phosphoserine phosphatase SerB2 (Mycobacterium tuberculosis) (UniProt O53289); assay: Inhibition of Mycobacterium tuberculosis SerB2 expressed in Escherichia coli BL21 at 1 mM incubated for 10 mins by malachite green dye based phosphatase assay
[2] = biological target: Phosphoserine phosphatase SerB2 (Mycobacterium tuberculosis) (UniProt O53289); assay: Binding affinity to Mycobacterium tuberculosis SerB2 expressed in Escherichia coli BL21 (DE3) cells assessed as protein destabilization at 4 mM by differential scanning fluorimetry
[3] = biological target: Phosphoserine phosphatase SerB2 (Mycobacterium tuberculosis) (UniProt O53289); assay: Binding affinity to Mycobacterium tuberculosis SerB2 expressed in Escherichia coli BL21 (DE3) cells assessed as change in melting temperature at 4 mM by differential scanning fluorimetry
[4] = biological target: Phosphoserine phosphatase SerB2 (Mycobacterium tuberculosis) (UniProt O53289); assay: Inhibition of Mycobacterium tuberculosis SerB2 expressed in Escherichia coli BL21 at 1 mM incubated for 10 mins by malachite green dye based phosphatase assay relative to control

Sequence of Phosphoserine phosphatase SerB2 (Mycobacterium tuberculosis) (O53289 whole entry): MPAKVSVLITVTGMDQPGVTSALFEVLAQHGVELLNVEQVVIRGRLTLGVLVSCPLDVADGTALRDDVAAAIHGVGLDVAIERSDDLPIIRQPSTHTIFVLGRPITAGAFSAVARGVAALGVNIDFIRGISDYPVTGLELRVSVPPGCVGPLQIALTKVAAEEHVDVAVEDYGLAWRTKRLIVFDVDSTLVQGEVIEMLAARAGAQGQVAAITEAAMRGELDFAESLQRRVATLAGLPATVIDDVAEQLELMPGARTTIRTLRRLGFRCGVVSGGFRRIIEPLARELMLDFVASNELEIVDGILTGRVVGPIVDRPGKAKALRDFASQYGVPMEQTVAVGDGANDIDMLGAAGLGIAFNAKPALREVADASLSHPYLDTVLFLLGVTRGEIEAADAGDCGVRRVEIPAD

| SMILES | inhibition [1] | Activity [2] | ΔTm [3] [°C] | inhibition [4] [%] |
| --- | --- | --- | --- | --- |
| CCC(N)P(=O)(O)O (configuration not stated) | Active |  |  |  |
| NC(=O)NO | Active | Active | > 0.5 |  |
| N[C@@H](CCS(=O)(=O)O)C(=O)O |  | Active | > 0.5 |  |
| Nc1ccc(C(=O)O)c(O)c1 | Active |  |  |  |
| Nc1ccc(O)cc1 |  | inactive | > 0.5 | > 50 |
| Nc1ccncc1 |  | Active | > 0.5 |  |
| NCCCP(=O)(O)O | Active |  |  |  |
| O=C(O)c1cc(O)ccn1 |  | Active | > 0.5 | > 50 |
| c1ccc(-c2c[nH]cn2)cc1 |  | Active | > 0.5 |  |
| Cc1cc(C2CCCCC2)n(O)c(=O)c1 |  | Active | > 0.5 |  |
| c1c[nH]cn1 | Active |  |  |  |
| O=C(NO)Nc1ccc(Cl)cc1Cl |  | Active | > 0.5 | > 50 |
| O=P(O)(O)C(O)(Cn1ccnc1)P(=O)(O)O |  | Active | > 0.5 | > 50 |
